Assay [1] concerns Escherichia coli. Briefly: Inhibition of Escherichia coli DNA gyrase supercoiling activity using relaxed pBR322 DNA after 1 hr by gel electrophoresis assay.
Assay [2] has as its system Escherichia coli. Briefly: Inhibition of Escherichia coli topoisomerase-4-mediated DNA cleavage assessed as relaxation of supercoiled pBR322 after 1 hr by gel electrophoresis assay.
Assay [3] concerns Escherichia coli. Briefly: Inhibition of Escherichia coli DNA gyrase supercoiling activity using relaxed pBR322 DNA at 20 umol/L after 1 hr by gel electrophoresis assay.
The target in assay [4] is DNA topoisomerase 2-alpha (Homo sapiens) (UniProt P11388). Kind of assay: Inhibition of human topoisomerase 2-mediated DNA cleavage assessed as relaxation of supercoiled pBR322 after 1 hr by gel electrophoresis assay.
Assay [5] concerns Escherichia coli. Kind of assay: Inhibition of Escherichia coli topoisomerase-4-mediated DNA cleavage assessed as relaxation of supercoiled pBR322 at <75 umol/L after 1 hr by gel electrophoresis assay.

Activity calls are given as the source filed them. The calls are words filed in the database; no cut-off is given here. Where a SMILES comes first, the peptide text is derived from it.

The term inhibition denotes the drop in the measured response relative to a control, in per cent.

Sequence of DNA topoisomerase 2-alpha (Homo sapiens) (P11388 whole entry): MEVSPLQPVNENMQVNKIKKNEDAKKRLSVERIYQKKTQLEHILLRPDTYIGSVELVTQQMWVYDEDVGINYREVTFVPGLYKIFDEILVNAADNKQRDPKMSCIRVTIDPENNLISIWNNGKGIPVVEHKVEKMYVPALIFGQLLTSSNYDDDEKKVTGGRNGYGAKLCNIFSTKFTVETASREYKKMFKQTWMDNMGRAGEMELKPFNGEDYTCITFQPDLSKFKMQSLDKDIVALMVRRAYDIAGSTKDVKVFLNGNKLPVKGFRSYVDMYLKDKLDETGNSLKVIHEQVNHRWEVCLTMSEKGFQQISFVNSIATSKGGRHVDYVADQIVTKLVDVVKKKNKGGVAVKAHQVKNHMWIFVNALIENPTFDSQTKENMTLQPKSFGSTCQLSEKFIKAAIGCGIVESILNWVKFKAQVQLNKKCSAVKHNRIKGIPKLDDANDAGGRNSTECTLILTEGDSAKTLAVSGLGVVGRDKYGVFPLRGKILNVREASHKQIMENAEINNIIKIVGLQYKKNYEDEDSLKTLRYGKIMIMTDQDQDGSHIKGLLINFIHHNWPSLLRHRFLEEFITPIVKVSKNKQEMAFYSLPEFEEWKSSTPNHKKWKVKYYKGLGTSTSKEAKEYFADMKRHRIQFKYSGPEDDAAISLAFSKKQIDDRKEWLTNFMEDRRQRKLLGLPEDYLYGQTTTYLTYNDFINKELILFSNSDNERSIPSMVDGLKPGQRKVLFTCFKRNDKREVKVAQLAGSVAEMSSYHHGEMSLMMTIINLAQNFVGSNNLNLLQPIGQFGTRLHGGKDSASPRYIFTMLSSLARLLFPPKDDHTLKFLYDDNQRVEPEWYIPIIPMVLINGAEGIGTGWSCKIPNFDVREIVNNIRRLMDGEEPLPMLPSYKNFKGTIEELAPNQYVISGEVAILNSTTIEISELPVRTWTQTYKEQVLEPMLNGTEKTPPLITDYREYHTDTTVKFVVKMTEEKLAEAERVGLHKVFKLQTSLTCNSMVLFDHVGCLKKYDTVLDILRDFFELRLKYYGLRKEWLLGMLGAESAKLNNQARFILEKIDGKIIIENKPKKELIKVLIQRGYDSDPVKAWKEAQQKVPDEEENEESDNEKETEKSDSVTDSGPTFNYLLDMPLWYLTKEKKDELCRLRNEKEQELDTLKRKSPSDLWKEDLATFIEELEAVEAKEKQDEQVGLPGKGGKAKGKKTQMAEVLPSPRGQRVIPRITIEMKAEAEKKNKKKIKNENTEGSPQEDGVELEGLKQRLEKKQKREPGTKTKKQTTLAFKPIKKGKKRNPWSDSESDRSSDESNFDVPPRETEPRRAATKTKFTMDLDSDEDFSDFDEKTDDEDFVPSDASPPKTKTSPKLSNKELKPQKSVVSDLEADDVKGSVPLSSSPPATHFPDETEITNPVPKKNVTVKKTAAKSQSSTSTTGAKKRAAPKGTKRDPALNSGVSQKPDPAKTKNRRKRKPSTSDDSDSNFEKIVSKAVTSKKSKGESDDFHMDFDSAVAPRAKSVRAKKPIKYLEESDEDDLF

Regarding H-PALVVAIFHERMDLMARLSER-OH, the IC100 in the assay on Escherichia coli [1] was greater than 20 µmol/L; with Escherichia coli [2], 10 µmol/L. Also, in the assay with Escherichia coli [3], the inhibition is 93%. Besides, the inhibition entry in assay [4] was “inactive”.
For the molecule `CC[C@H](C)[C@H](NC(=O)[C@H](C)NC(=O)[C@@H](NC(=O)[C@@H](NC(=O)[C@H](CC(C)C)NC(=O)[C@H](C)NC(=O)[C@@H]1CCCN1C(=O)[C@H](C)NC(=O)[C@H](CO)NC(=O)CNC(=O)[C@H](Cc1cnc[nH]1)NC(=O)[C@@H]1CCCN1C(=O)[C@H](CC(C)C)NC(=O)[C@H](CS)NC(=O)[C@H](Cc1ccccc1)NC(=O)[C@@H](NC(=O)[C@H](Cc1ccc(O)cc1)NC(=O)[C@H](Cc1cnc[nH]1)NC(=O)[C@H](Cc1cnc[nH]1)NC(=O)[C@H](CCC(=O)O)NC(=O)[C@H](CS)NC(=O)[C@H](Cc1cnc[nH]1)NC(=O)[C@@H](NC(=O)[C@H](CCSC)NC(=O)[C@H](CCCNC(=N)N)NC(=O)[C@@H](N)CC(C)C)[C@@H](C)CC)C(C)C)C(C)C)C(C)C)C(=O)N[C@@H](Cc1ccccc1)C(=O)O` (H-LRMIHCEHHYVFCLPHGSAPALVVAIF-OH), in assay [4], the inhibition result is “inactive”.
With “H-HYVFCLPHGSAPALVVAIFHERMDLMARLSERLNIES-OH”, the inhibition result in the assay on Escherichia coli [5] was “inactive”.
For `CC[C@H](C)[C@H](NC(=O)[C@H](CCSC)NC(=O)[C@H](CCCNC(=N)N)NC(=O)[C@@H](N)CC(C)C)C(=O)N[C@@H](Cc1cnc[nH]1)C(=O)N[C@@H](CS)C(=O)N[C@@H](CCC(=O)O)C(=O)N[C@@H](Cc1cnc[nH]1)C(=O)N[C@@H](Cc1cnc[nH]1)C(=O)N[C@@H](Cc1ccc(O)cc1)C(=O)N[C@H](C(=O)N[C@@H](Cc1ccccc1)C(=O)N[C@@H](CS)C(=O)N[C@@H](CC(C)C)C(=O)N1CCC[C@H]1C(=O)N[C@@H](Cc1cnc[nH]1)C(=O)NCC(=O)N[C@@H](CO)C(=O)N[C@@H](C)C(=O)O)C(C)C` (H-LRMIHCEHHYVFCLPHGSA-OH), the results for the IC100 (in the assay on Escherichia coli [1]; with Escherichia coli [2]; in assay [4]) were 50 µmol/L, 25 µmol/L and 50 µmol/L, respectively.
